target: [35S]-TBPS binding, rat brain cortical membranes; assay: Steroid inhibition of [35S]-TBPS binding; settings: 3 nM [35S]-TBPS, in the presence of 5 mM GABA
Description: [^35S]-t-Butylbicyclophosphorothionate (TBPS) binding assays using rat brain cortical membranes in the presence of 5 mM GABA has been described (Gee et al, J. Pharmacol. Exp. Ther. 1987, 241, 346-353; Hawkinson et al, Mol. Pharmacol. 1994, 46, 977-985; Lewin, A. H et al., Mol. Pharmacol. 1989, 35, 189-194).
Briefly, cortices are rapidly removed following decapitation of carbon dioxide-anesthetized Sprague-Dawley rats (200-250 g). The cortices are homogenized in 10 volumes of ice-cold 0.32 M sucrose using a glass/teflon homogenizer and centrifuged at 1500×g for 10 min at 4° C. The resultant supernatants are centrifuged at 10,000×g for 20 min at 4° C. to obtain the P2 pellets. The P2 pellets are resuspended in 200 mM NaCl/50 mM Na—K phosphate pH 7.4 buffer and centrifuged at 10,000×g for 10 min at 4° C. This washing procedure is repeated twice and the pellets are resuspended in 10 volumes of buffer. Aliquots ([…]) of the membrane suspensions are incubated with 3 nM [^35S]-TBPS and […] aliquots of test drug dissolved in dimethyl sulfoxide (DMSO) (final 0.5%) in the presence of 5 mM GABA. The incubation is brought to a final volume of 1.0 mL with buffer. Nonspecific binding is determined in the presence of […] and ranged from 15 to 25%. Following a 90 min incubation at room temp, the assays are terminated by filtration through glass fiber filters (Schleicher and Schuell No. 32) using a cell harvester (Brandel) and rinsed three times with ice-cold buffer. Filter bound radioactivity is measured by liquid scintillation spectrometry. Non-linear curve fitting of the overall data for each drug averaged for each concentration is done using Prism (GraphPad). […] The concentration of test compound producing 50% inhibition (IC50) of specific binding and the maximal extent of inhibition (Imax) are determined for the individual experiments with the same model used for the overall data and then the means±SEM.s of the individual experiments are calculated.
Various compounds are or can be screened to determine their potential as modulators of [^35S]-TBPS binding in vitro. These assays are or can be performed in accordance with the above

`COC[C@@]1(O)CC[C@H]2[C@H](CC[C@@H]3[C@@H]2CC[C@]2(C)[C@@H]([C@H](C)NC(=O)c4ccc(OC(F)(F)F)cn4)CC[C@@H]32)C1` [Example 129] and `COc1ccc(C(=O)N[C@H](C)[C@H]2CC[C@H]3[C@@H]4CC[C@@H]5C[C@](C)(O)CC[C@@H]5[C@H]4CC[C@]23C)cc1` [Example 106] fall in the same range of IC50: 100 to 1000 nM for the first, 100 to 1000 nM for the second.

Compared with `C[C@H]([C@H]1CC[C@H]2[C@@H]3CC[C@@H]4C[C@](C)(O)CC[C@@H]4[C@H]3CC[C@]12C)N(C)S(=O)(=O)c1ccccc1` [Example 22, N—((R)-1-((3R,5R,8R,9R,10S,13S,14S,17S)-3-hydroxy-3,13-dimethylhexadecahydro-1H-cyclopenta[a]phenanthren-17-yl)ethyl)-N-methylbenzenesulfonamide], `C[C@H](NS(=O)(=O)c1ccccc1)[C@H]1CC[C@H]2[C@@H]3CC[C@@H]4C[C@](C)(O)CC[C@@H]4[C@H]3CC[C@]12C` [Example 17, N—((S)-1-((3R,5R,8R,9R,10S,13S,14S,17S)-3-hydroxy-3,13-dimethylhexadecahydro-1H-cyclopenta[a]phenanthren-17-yl)ethyl)benzenesulfonamide] is higher in IC50: < 100 nM for the first, 1000 to 10000 nM for the second.

First: Cc1cc(C[C@@H](C)[C@H]2CC[C@H]3[C@@H]4CC[C@@H]5C[C@](C)(O)CC[C@@H]5[C@H]4CC[C@]23C)sn1 [Example 451]
Second: COC[C@@]1(O)CC[C@H]2[C@H](CC[C@@H]3[C@@H]2CC[C@]2(C)[C@@H]([C@@H](C)Cc4cnc(C)cn4)CC[C@@H]32)C1 [Example 422]
The IC50 of the first is higher: 100 to 1000 nM for the first, < 100 nM for the second. The second is the more potent here.

`CCC[C@@]1(O)CC[C@@]2(C)[C@H](CC[C@@H]3[C@@H]2CC[C@]2(C)[C@@H]([C@H](C)Cn4cc(C#N)cn4)CC[C@@H]32)C1` [Example 308, 1-((S)-2-((3R,5R,8R,9S,10S,13S,14S,17R)-3-hydroxy-10,13-dimethyl-3-propylhexadecahydro-1H-cyclopenta[a]phenanthren-17-yl)propyl)-1H-pyrazole-4-carbonitrile] and `CCC[C@@]1(O)CC[C@@]2(C)[C@H](CC[C@@H]3[C@@H]2CC[C@]2(C)[C@@H]([C@@H](C)Cn4cc(C#N)cn4)CC[C@@H]32)C1` [Example 307, 1-((R)-2-((3R,5R,8R,9S,10S,13S,14S,17R)-3-hydroxy-10,13-dimethyl-3-propylhexadecahydro-1H-cyclopenta[a]phenanthren-17-yl)propyl)-1H-pyrazole-4-carbonitrile] cannot be ordered by IC50: < 100 nM for the first, < 100 nM for the second.

First: CC[C@H](NCc1ccccc1)[C@H]1CC[C@H]2[C@@H]3CC[C@@H]4C[C@@](O)(COC)CC[C@@H]4[C@H]3CC[C@]12C [Example 213, (3R,5R,8R,9R,10S,13S,14S,17S)-17-((S)-1-(benzylamino)propyl)-3-(methoxymethyl)-13-methylhexadecahydro-1H-cyclopenta[a]phenanthren-3-ol]
Second: CCOC[C@@]1(O)CC[C@H]2[C@H](CC[C@@H]3[C@@H]2CC[C@]2(C)[C@@H]([C@@H](C)N[C@H](C)c4ccccc4)CC[C@@H]32)C1 [Example 206]
The IC50 of the first is higher: 1000 to 10000 nM for the first, 100 to 1000 nM for the second. The second is the more potent here.

`CCOC[C@@]1(O)CC[C@H]2[C@H](CC[C@@H]3[C@@H]2CC[C@]2(C)[C@@H]([C@H](C)Cn4ccnn4)CC[C@@H]32)C1` [Example 267, (3R,5R,8R,9R,10S,13S,14S,17R)-17-((S)-1-(1H-1,2,3-triazol-1-yl)propan-2-yl)-3-(ethoxymethyl)-13-methylhexadecahydro-11H-cyclopenta[a]phenanthren-3-ol] and `CCOC[C@@]1(O)CC[C@H]2[C@H](CC[C@@H]3[C@@H]2CC[C@]2(C)[C@@H]([C@@H](C)Cn4cc(C#N)cn4)CC[C@@H]32)C1` [Example 269, 1-((R)-2-((3R,5R,8R,9R,10S,13S,14S,17R)-3-(ethoxymethyl)-3-hydroxy-13-methylhexadecahydro-1H-cyclopenta[a]phenanthren-17-yl)propyl)-1H-pyrazole-4-carbonitrile] cannot be ordered by IC50: < 100 nM for the first, < 100 nM for the second.

First: CCOC[C@@]1(O)CC[C@H]2[C@H](CC[C@@H]3[C@@H]2CC[C@]2(C)[C@@H]([C@@H](C)n4ncc(C#N)c4N)CC[C@@H]32)C1 [Example 160, 5-amino-1-((R)-1-((3R,5R,8R,9R,10S,13S,14S,17S)-3-(ethoxymethyl)-3-hydroxy-13-methylhexadecahydro-1H-cyclopenta[a]phenanthren-17-yl)ethyl)-1H-pyrazole-4-carbonitrile]
Second: CCC[C@@]1(O)CC[C@H]2[C@H](CC[C@@H]3[C@@H]2CC[C@]2(C)[C@@H]([C@H](C)Cn4cc(C#N)cn4)CC[C@@H]32)C1 [Example 66, 1-((S)-2-((3R,5R,8R,9R,10S,13S,14S,17R)-3-hydroxy-13-methyl-3-propylhexadecahydro-1H-cyclopenta[a]phenanthren-17-yl)propyl)-1H-pyrazole-4-carbonitrile]
The IC50 of the first is higher: 1000 to 10000 nM for the first, < 100 nM for the second. The second is the more potent here.

First: C[C@@H](NC(=O)c1ccc(F)cc1)[C@H]1CC[C@H]2[C@@H]3CC[C@@H]4C[C@](C)(O)CC[C@@H]4[C@H]3CC[C@]12C [Example 116]
Second: C[C@@H]([C@H]1CC[C@H]2[C@@H]3CC[C@@H]4C[C@](C)(O)CC[C@@H]4[C@H]3CC[C@]12C)N(C)c1ccccc1 [Example 39, (3R,5R,8R,9R,10S,13S,14S,17S)-3,13-dimethyl-17-((S)-1-(methyl(phenyl)amino)ethyl)hexadecahydro-1H-cyclopenta[a]phenanthren-3-ol]
The IC50 of the first is lower: < 100 nM for the first, 1000 to 10000 nM for the second.

Compared with `C[C@@]1(O)CC[C@H]2[C@H](CC[C@@H]3[C@@H]2CC[C@]2(C)[C@@H](CN4CC[C@@H](c5ccccc5)C4=O)CC[C@@H]32)C1` [Example 11, (S)-1-(((3R,5R,8R,9R,10S,13S,14S,17S)-3-hydroxy-3,13-dimethylhexadecahydro-1H-cyclopenta[a]phenanthren-17-yl)methyl)-3-phenylpyrrolidin-2-one], `CCC[C@@]1(O)CC[C@H]2[C@H](CC[C@@H]3[C@@H]2CC[C@]2(C)[C@@H]([C@H](C)Cc4ccc(C#N)nc4)CC[C@@H]32)C1` [Example 400, 5-((R)-2-((3R,5R,8R,9R,10S,13R,14S,17R)-3-hydroxy-13-methyl-3-propylhexadecahydro-1H-cyclopenta[a]phenanthren-17-yl)propyl)picolinonitrile] is lower in IC50: 100 to 1000 nM for the first, < 100 nM for the second.

Compared with `CCC[C@@]1(O)CC[C@@]2(COC)[C@H](CC[C@H]3[C@@H]4CC[C@H]([C@@H](C)Cn5nnc(C)n5)[C@@]4(C)CC[C@@H]32)C1` [Example 319, (3R,5R,8S,9S,10R,13S,14S,17R)-10-(methoxymethyl)-13-methyl-17-((R)-1-(5-methyl-2H-tetrazol-2-yl)propan-2-yl)-3-propylhexadecahydro-1H-cyclopenta[a]phenanthren-3-ol], `CCC[C@@]1(O)CC[C@@]2(C)[C@H](CC[C@@H]3[C@@H]2CC[C@]2(C)[C@@H]([C@H](C)Cn4nnc(C)n4)CC[C@@H]32)C1` [Example 314, (3R,5R,8R,9S,10S,13S,14S,17R)-10,13-dimethyl-17-((S)-1-(5-methyl-2H-tetrazol-2-yl)propan-2-yl)-3-propylhexadecahydro-1H-cyclopenta[a]phenanthren-3-ol] is higher in IC50: < 100 nM for the first, 100 to 1000 nM for the second. The first is the more potent here.

Source: patent US20230322846A9, “NEUROACTIVE STEROIDS AND THEIR METHODS OF USE” (SAGE THERAPEUTICS, INC., priority 2018, published 2023)
